Measurements taken from PubChem BioAssay (NCI).
“And” between values parts separate entries of the source, which are not always exact repeats. Equal values may be shown once.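 Grown in 96-well plates, cells were treated for 48 hours with each compound at five concentrations. Insufficient inhibition: endpoint recorded as highest concentration tested. At the GI50, growth is halved. TGI marks complete inhibition of growth.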

Tests used:
Assay in all cases: growth of human tumour cells (NCI), 48 h
786-0 renal = test system: 786-0 renal
CAKI-1 renal = test system: CAKI-1 renal
COLO 205 colon = test system: COLO 205 colon
DU-145 prostate = test system: DU-145 prostate
HOP-62 NSCLC = test system: HOP-62 NSCLC
MDA-MB-435 = test system: MDA-MB-435
NCI-H23 lung = test system: NCI-H23 lung
NCI/ADR-RES ovarian = test system: NCI/ADR-RES ovarian
SF-268 CNS = test system: SF-268 CNS
SK-MEL-2 melanoma = test system: SK-MEL-2 melanoma
UO-31 renal = test system: UO-31 renal
HS 578T breast = test system: HS 578T breast
SR leukemia = test system: SR leukemia

Row | Structure (SMILES) | TGI (786-0 renal) | TGI (CAKI-1 renal) | TGI (COLO 205 colon) | TGI (DU-145 prostate) | TGI (HOP-62 NSCLC) | TGI (MDA-MB-435) | TGI (NCI-H23 lung) | TGI (NCI/ADR-RES ovarian) | TGI (SF-268 CNS) | TGI (SK-MEL-2 melanoma) | TGI (UO-31 renal) | TGI (HS 578T breast) | TGI (SR leukemia) | GI50 (CAKI-1 renal) | GI50 (COLO 205 colon) | GI50 (DU-145 prostate) | GI50 (NCI-H23 lung) | GI50 (NCI/ADR-RES ovarian) | GI50 (SR leukemia) | GI50 (UO-31 renal)
1 | CS(=O)(=O)c1nc(-c2cc3c(c(S(C)(=O)=O)n2)CCC3)cc2c1CCC2 | > 100 µM | > 100 µM | > 100 µM | > 100 µM | > 100 µM | > 100 µM | > 100 µM | > 100 µM | > 100 µM | > 100 µM | > 100 µM | – | – | – | – | – | – | – | – | –
2 | O=C(/C=C/c1ccccc1O)CC(=O)/C=C/c1ccccc1O | 16.1 µM | 29.9 µM | – | > 31.6 µM | 19.4 µM | > 31.6 µM | 16.9 µM | 14.5 µM | – | 17 µM | 12.6 µM | > 31.6 µM | > 25 µM | – | – | – | – | – | – | –
3 | COC(=O)c1ccc2c(c1)CCN2C(=O)c1cc2c(cc1Br)OCO2 | 27.4 µM and > 100 µM | 50 µM and > 100 µM | 2.62 µM and 3.9 µM | 26.9 µM and > 100 µM | 50 µM and > 100 µM | 0.994 µM | 50 µM and 6.16 µM | 4.79 µM and 0.693 µM | 50 µM | 5.7 µM and 36.4 µM | 24.8 µM and 72.1 µM | – | 50 µM and > 100 µM | 0.953 µM | 1.13 µM | 3.02 µM | 0.746 µM | 0.262 µM | 0.366 µM | 0.817 µM
4 | O=C1CCCc2ccc3c(c21)CC1(Cc2cc4c(cc2C1)CCCC4)C3 | 33 µM | – | 31.1 µM | > 100 µM | 57.1 µM | 46.7 µM | 49 µM | > 100 µM | 77.1 µM | 48.9 µM | 32.4 µM | 81.4 µM | 31.5 µM | – | – | – | – | – | – | –
5 | N#CCCN(CCN(CCN(C(=O)Nc1ccccc1)c1ccccc1)C(=O)Nc1ccccc1)C(=O)Nc1ccccc1 | > 100 µM | > 100 µM | > 100 µM | > 100 µM | > 100 µM | > 100 µM | > 100 µM | > 100 µM | > 100 µM | > 100 µM | > 100 µM | > 100 µM | – | – | – | – | – | – | – | –
6 | CCCCC(=O)Nc1ccc2cc(C(=O)OC)c(=O)[nH]c2n1 | > 100 µM | > 100 µM | > 100 µM | – | > 100 µM | > 100 µM | > 100 µM | > 100 µM | > 100 µM | > 100 µM | > 100 µM | – | > 100 µM | – | – | – | – | – | – | –
7 | CCCCc1ccc(Nc2nc(N)c3[nH]cnc3n2)cc1 | 33.2 µM | 37.7 µM | 38.1 µM | 56.7 µM | – | 40.6 µM | 32.8 µM | 37.2 µM | 32.8 µM | 57.6 µM | 27.1 µM | 41.6 µM | – | – | – | – | – | – | – | –
8 | C=CCn1c(-c2ccc(N=NNc3ccc(-c4n[nH]c(=S)n4CC=C)cc3)cc2)n[nH]c1=S | 25.4 µM | 19.1 µM | > 100 µM | 16 µM | 14.8 µM | > 100 µM | > 100 µM | 61.4 µM | 21.5 µM | – | 3.97 µM | > 100 µM | > 100 µM | – | – | – | – | – | – | –
9 | Cc1cc(S(=O)(=O)Nc2nc(N)n(-c3ccccc3)n2)c(S)cc1Cl | > 100 µM | > 100 µM | > 100 µM | > 100 µM | > 100 µM | > 100 µM | – | > 100 µM | > 100 µM | > 100 µM | > 100 µM | > 100 µM | > 100 µM | – | – | – | – | – | – | –
10 | Brc1ccc2c(c1)[C@H]1CCc3c([nH]c4ccccc34)[C@H]1N2 | – | 21.8 µM | 23.6 µM | 25.5 µM | 25.6 µM | 26.2 µM | 25 µM | 29.6 µM | 32.4 µM | 36.4 µM | 26.9 µM | 46.5 µM | 33.1 µM | – | – | – | – | – | – | –
11 | C/C(=N\NC(=S)N/N=C(\C)c1ccccn1)c1ccccn1 | > 100 µM | 5.24 µM | > 100 µM | > 100 µM | 5.28 µM | > 100 µM | > 100 µM | 27 µM | 16.3 µM | – | 5.31 µM | > 100 µM | > 100 µM | – | – | – | – | – | – | –
12 | Clc1ccc2nc3c(c(-c4ccccc4)nn3-c3ccccc3)c(-c3ccccc3)c2c1 | > 100 µM | – | > 100 µM | > 100 µM | > 100 µM | > 100 µM | > 100 µM | > 100 µM | > 100 µM | > 100 µM | > 100 µM | > 100 µM | > 100 µM | – | – | – | – | – | – | –
13 | COC12OC3(C4OC41)C(C(=O)O[C@H]3CO[Si](C)(C)C(C)(C)C)C2S(=O)(=O)c1ccccc1 (some centres not stated) | > 7.71 µM | 3.33 µM | 47.3 µM | > 6.06 µM | > 5.97 µM | > 5.11 µM | > 100 µM | > 100 µM | – | > 5.33 µM | > 5.18 µM | > 100 µM | > 100 µM | – | – | – | – | – | – | –
14 | C=C1CN(C(=O)c2cc3cc(OC)c(OC)c(OC)c3[nH]2)c2cc([N+](=O)[O-])ccc21 | > 100 µM | > 100 µM | > 100 µM | > 100 µM | – | > 100 µM | > 100 µM | > 100 µM | > 100 µM | > 100 µM | > 100 µM | 41.9 µM | > 100 µM | – | – | – | – | – | – | –
15 | N.N.NCCCCN.O=C([O-])CCl.O=C([O-])CCl.O=C([O-])CCl.O=C([O-])CCl.[Pt+4].[Pt+4] | > 50 µM | – | > 50 µM | – | > 50 µM | – | > 50 µM | – | > 50 µM | > 50 µM | > 50 µM | – | > 50 µM | – | – | – | – | – | – | –
16 | COC(=O)[C@@]12CC3CN(Cc4c1[nH]c1ccccc41)C2CC3=O | > 100 µM | > 100 µM | > 100 µM | > 100 µM | > 100 µM | > 100 µM | > 100 µM | > 100 µM | > 100 µM | > 100 µM | – | – | – | – | – | – | – | – | – | –
17 | CC12CCC3=C(CSC4=C3CSc3ccccc34)C1=CCCC2=O (configuration not stated) | – | > 100 µM | 45.8 µM | – | > 100 µM | – | > 100 µM | – | > 100 µM | > 100 µM | > 100 µM | – | > 100 µM | – | – | – | – | – | – | –
